Source: patent US11319298B2 (Merck Sharp & Dohme Corp., priority 2016, dated 2022)

Target: T1, human M4 muscarinic acetylcholine receptor (Homo sapiens, UniProt P08173)
T1 construct: expressed in transfected cells; host or cells: CHO-K1
T1 sequence (P08173 1-479): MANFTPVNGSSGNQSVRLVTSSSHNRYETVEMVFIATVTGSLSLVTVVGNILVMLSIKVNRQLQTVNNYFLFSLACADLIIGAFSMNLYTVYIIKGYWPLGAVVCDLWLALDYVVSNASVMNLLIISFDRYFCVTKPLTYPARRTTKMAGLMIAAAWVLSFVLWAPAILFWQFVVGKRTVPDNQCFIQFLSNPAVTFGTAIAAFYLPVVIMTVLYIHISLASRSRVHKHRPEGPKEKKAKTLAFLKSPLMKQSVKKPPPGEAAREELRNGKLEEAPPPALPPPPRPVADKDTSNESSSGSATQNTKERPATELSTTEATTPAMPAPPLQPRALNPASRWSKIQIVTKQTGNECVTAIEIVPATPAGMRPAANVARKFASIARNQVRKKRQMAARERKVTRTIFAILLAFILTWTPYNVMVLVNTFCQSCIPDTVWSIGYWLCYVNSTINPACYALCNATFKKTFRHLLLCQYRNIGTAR
Test: human FLIPR-based M4 PAM assay, CHO-K1 cells stably transfected with human M4 receptor and chimeric G-protein Gαqi5
Assay type: cell-based
Conditions: inflection point (IP) of dose response curve; acetylcholine added at 20% of maximum response; CHO-K1 human M4/Gαqi5, FLIPR Tetra
How it was run: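 CHO-K1 cells were loaded with calcium dye at 37 °C for ~1 h. Fluorescence (ex 470–495/em 515–575 nm) was read for 4 min after test compound at increasing concentrations, then 3.5 min after acetylcholine at an EC20; sometimes a third addition at EC70 followed. The value is the inflection point of a 4-parameter logistic fit.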

EC50 [nM]	SMILES
33	Cc1c(Cl)nc(CO)nc1N1CCC(Oc2ccc3c(c2)CCCN3)CC1 [Example 93, (4-chloro-5-methyl-6-(4-((1,2,3,4-tetrahydroquinolin-6-yl)oxy)piperidin-1-yl)pyrimidin-2-yl)methanol]
34	Cc1c(Cl)nc(CO)nc1N1CCC(Oc2ccc3c(c2)COC3)CC1 [Example 94, (4-chloro-6-(4-((1,3-dihydroisobenzofuran-5-yl)oxy)piperidin-1-yl)-5-methylpyrimidin-2-yl)methanol]
803	COc1ccc(OC2CCN(c3nc(SC)ncc3C#N)CC2)cc1 [Example 95, 4-(4-(4-methoxyphenoxy)piperidin-1-yl)-2-(methylthio)pyrimidine-5-carbonitrile]
4940	CSc1ncc(C#N)c(N2CCC(Oc3cccnc3)CC2)n1 [Example 95A, 2-(methylthio)-4-(4-(pyridin-3-yloxy)piperidin-1-yl)pyrimidine-5-carbonitrile]
435	Cc1c(Cl)nc(C2CC2)nc1N1CCC(Oc2cccnc2)CC1 [Example 95B, 4-chloro-2-cyclopropyl-5-methyl-6-(4-(pyridin-3-yloxy)piperidin-1-yl)pyrimidine]
846	COc1ccc(OC2CCN(c3nc(C4CC4)nc(Cl)c3C)CC2)cc1 [Example 95C, 4-chloro-2-cyclopropyl-6-(4-(4-methoxyphenoxy)piperidin-1-yl)-5-methylpyrimidine]
928	COc1ccc(OC2CCN(c3ncncc3Br)CC2)cn1 [Example 95D, 5-bromo-4-(4-((6-methoxypyridin-3-yl)oxy)piperidin-1-yl)pyrimidine]
37	Cc1c(Cl)nc(CO)nc1N1CCC(Oc2ccc3c(c2)OCCN3)CC1 [Example 96, (4-Chloro-6-(4-((3,4-dihydro-2H-benzo[b][1,4]oxazin-7-yl)oxy)piperidin-1-yl)-5-methylpyrimidin-2-yl)methanol]
68	Cc1c(Cl)nc(CO)nc1N1CCC(Oc2ccc3[nH]ccc3c2)CC1 [Example 97, (4-(4-((1H-indol-5-yl)oxy)piperidin-1-yl)-6-chloro-5-methylpyrimidin-2-yl)methanol]
184	Cc1c(Cl)nc(CO)nc1N1CCC(Oc2ccc3c(c2)C(=O)NC3)CC1 [Example 98, 6-((1-(6-chloro-2-(hydroxymethyl)-5-methylpyrimidin-4-yl)piperidin-4-yl)oxy)isoindolin-1-one]
319	Cc1ncc(C)c(N2CCC(Oc3ccc4c(c3)C(=O)OC4)CC2)n1 [Example 99, 6-((1-(2,5-Dimethylpyrimidin-4-yl)piperidin-4-yl)oxy)isobenzofuran-1(31-1)-one]
674	Cc1ncc(C)c(N2CCC(Oc3ccc4c(c3)C(=O)NC4)CC2)n1 [Example 100, 6-((1-(2,5-dimethylpyrimidin-4-yl)piperidin-4-yl)oxy)isoindolin-1-one]
129	COc1ccc(OC2CCN(c3nnc(C(=O)NCc4ccncc4)cc3C)CC2)cc1 [Example 101, 6-(4-(4-Methoxyphenoxy)piperidin-1-yl)-5-methyl-N-(pyridin-4-ylmethyl)pyridazine-3-carboxamide]
378	COC(=O)c1cc(C)c(N2CCC(Oc3ccc(OC)nc3)CC2)nc1F [Example 102, Methyl 2-fluoro-6-(4-((6-methoxypyridin-3-yl)oxy)piperidin-1-yl)-5-methylnicotinate]
61	Cc1nc(C)c(C)c(N2CCC(Oc3cccc(C#N)c3)CC2)n1 [Example 103, 3-((1-(2,5,6-Trimethylpyrimidin-4-yl)piperidin-4-yl)oxy)benzonitrile]
91	COc1ccc(OC2CCN(c3nc(C)nc(C)c3C)CC2)cn1 [Example 104, 4-(4-((6-methoxypyridin-3-yl)oxy)piperidin-1-yl)-2,5,6,-trimethylpyrimidine]
58	CCOC(=O)c1cc(C)c(N2CCC(Oc3cccc(C#N)c3)CC2)nn1 [Example 105, ethyl 6-(4-(3-cyanophenoxy)piperidin-1-yl)-5-methylpyridazine-3-carboxylate]
170	CCOC(=O)c1cc(C)c(N2CCC(Oc3ccc(OC)nc3)CC2)nn1 [Example 105A, ethyl 6-(4-((6-methoxypridin-3-yl)oxy)piperidin-1-yl)-5-methylpyridazine-3-carboxylate]
33	Cc1cc(C(=O)NCc2ccncc2)nnc1N1CCC(Oc2cccc(C#N)c2)CC1 [Example 106, 6-(4-(3-Cyanophenoxy)piperidin-1-yl)-5-methyl-N-(pyridin-4-ylmethyl)pyridazine-3-carboxamide]
85	COc1ccc(OC2CCN(c3nnc(C(=O)OCc4ccncc4)cc3C)CC2)cn1 [Example 106A, Pyridin-4-ylmethyl 6-(4-((6-methoxypyridin-3-yl)oxy)piperidin-1-yl)-5-methylpyridazine-3-carboxylate]
18	Cc1cc(C(=O)NCc2ccncc2)nnc1N1CCC(Oc2ccc3c(c2)OCCO3)CC1 [Example 108, 6-[4-(2,3-dihydro-1,4-benzodioxin-6-yloxy)piperidin-1-yl]-5-methyl-N-(pyridin-4-ylmethyl)pyridazine-3-carboxamide]
34	COc1ccc(OC2CCN(c3nnc(C(=O)NCc4ccncc4)cc3C)CC2)cn1 [Example 109, 6-{4-[(6-methoxypyridin-3-yl)oxy]piperidin-1-yl}-5-methyl-N-(pyridin-4-ylmethyl)pyridazine-3-carboxamide]
35	Cc1cc(C(=O)NCc2ccncc2)nnc1N1CCC(Oc2ccc3[nH]ccc3c2)CC1 [Example 110, 6-[4-(1H-indol-5-yloxy)piperidin-1-yl]-5-methyl-N-(pyridin-4-ylmethyl)pyridazine-3-carboxamide]
40	Cc1cc(C(=O)NCc2ccncc2)nnc1N1CCC(Oc2ccc3[nH]ncc3c2)CC1 [Example 111, 6-[4-(1H-indazol-5-yloxy)piperidin-1-yl]-5-methyl-N-(pyridin-4-ylmethyl)pyridazine-3-carboxamide]
41	COc1ccc(OC2CCN(c3nc(C#N)c(C(N)=O)cc3C)CC2)cn1 [Example 112, 2-cyano-6-{4-[(6-methoxpyridin-3-yl)oxy]piperidin-1-yl}-5-methylpyridine-3-carboxamide]
44	COc1ccc(OC2CCN(c3nnc(C(=O)NCc4nncs4)cc3C)CC2)cn1 [Example 113, 6-{4-[(6-methoxypyridn-3-yl)oxy]piperidin-1-yl}-5-methyl-N-(1,3,4-thiadiazol-2-ylmethyl)pyridazine-3-carboxamide]
53	Cc1cc(C(=O)NCc2ccncc2)nnc1N1CCC(Oc2ccccc2)CC1 [Example 114, 5-methyl-6-(4-phenoxypiperidin-1-yl)-N-(pyridin-4-ylmethyl)pyridazine-3-carboxamide]
61	Cc1cc(C(=O)NCc2ccncc2)nnc1N1CC[C@@H](Oc2cccc(C#N)c2)[C@@H](F)C1 [Example 115, 6-[(3S,4R)-4-(3-cyanophenoxy)-3-fluoropiperidin-1-yl]-5-methyl-N-(pyridin-4-ylmethyl)pyridazine-3-carboxamide]
79	COc1ccc(OC2CCN(c3nnc(C(=O)NCc4ccncc4)cc3C)CC2)cn1 [Example 116, 6-{4-[(6-methoxypyridin-3-yl)oxy]piperidin-1-yl}-5-methyl-N-(pyridin-4-ylmethyl)pyridazine-3-carboxamide]
